Tests used:
[1] = test system: peptidyl transferase activity of 50S ribosomal subunits; conditions: cited from earlier work
[2] = molecular target: mAb D32.39; test: competition binding assay of synthesized peptides for mAb D32.39; conditions: 50 pM tracer peptide containing the D32.39 epitope sequence, IC50 should approximate the Kd, read-out: binding affinity for mAb D32.39 (IC50)
Description: FIG. 6. (SEQ. ID NO: 50-74) Amino acid alignment of selected peptide sequences with dynorphin B. The six-residue D32.39 epitope sequence of dynorphin B and the peptide regions similar to it are shown in the box. A total of 6, 13, 19, and 9 independent clones were sequenced from rounds 2, 3, 4 and 5, respectively. The frequency indicates the number of times each sequence occurred among the clones isolated from each round, and the asterisks indicate identical sequences found in different rounds. Binding affinities for D32.39 were determined by chemically synthesizing the indicated peptide sequences and measuring the IC50 as described in the Experimental Examples.
Peptides were synthesized with an Applied Biosystems model 431A peptide synthesizer using Fmoc-protected amino acids. The peptides were purified to greater than 90% purity by HPLC and confirmed by mass spectroscopy. The competition binding assay was performed and included a low concentration (50 pM) of the tracer peptide containing the D32.39 epitope sequence.
Peptides corresponding to some of the enriched sequences were chemically synthesized, purified and their identity confirmed by mass spectrometry. A competition binding assay was used to estimate their affinity for the mAb D32.39 and under the conditions of the assays the IC50 value should approximate the Kd. […]

[3] = test system: mAb D32.39; test: competition binding of radiolabelled polysomes to immobilized mAb D32.39; conditions: wells preincubated with 10 μH dynorphin B peptide for 1 hr at 4° C.
Experimental: FIG. 2. Specific binding of polysomes to mAb D32.39. Radiolabelled polysomes were isolated from reactions programmed with 1.5 μg of HindIII-linearized plasmid pLM138 or pLM142 and bound to microtiter wells containing the immobilized mAb. The recovered mIRNA was quantitated by TCA precipitation. (Panel A) Binding of polysomes containing the D32.39 epitope (closed boxes) or control (open boxes) sequences. (Panel B) Competition binding assay. Microtiter wells were preincubated with polysome buffer in the absence or presence of 10 μH dynorphin B peptide for 1 hr at 4° C. prior to adding 131,000 cpm of polysomes containing the D32.39 epitope (RQFKVVT) (SEQ ID NO:18) or control (VFKRTVQ) (SEQ ID NO:15) sequences.
Dynal beads were prepared according to the manufacturer. Microtiter wells were prepared for polysome binding by incubating each well with mAb D32.39 (5 μg per well) in PBS (10 mM sodium phosphate pH 7.4/120 mM NaCl/2.7 mM KCl) for 1 hr at 37° C., washing with PBS, blocking with PBS/1% nonfat milk for 1 hr at 37° C. and washing again with polysome buffer. Polysomes, as indicated, were incubated with the antibody for 2 hr at 4° C. […]
Specific Binding of Polysomes to mAb D32.39. The fraction of polysomes capable of binding specifically to mAb D32.39 via the nascent peptide was determined. […]

[4] = molecular target: iron response element (IRE); conditions: binds as a monomer; read-out: dissociation constant; cited from earlier work

MSTSKNAD [cmlA 8-mer peptide]
inhibitory activity relative to chloramphenicol ([1]; as inhibitory as chloramphenicol): about 50% | inhibitory activity relative to the cat 5-mer ([1]; more inhibitory than the cat 5-mer): about 5 fold

dynorphin B
IC50 [2]: 0.29 nM | blocking of binding of D32.39 epitope polysomes to mAb D32.39 [3]: binding was blocked

B1: IREBP: iron response element binding protein (98.4 kDal), RNA-binding protein (protein, UniProt P21399 1-889, looked up)
Cytoplasmic aconitate …: MSNPFAHLAEPLDPVQPGKKFFNLNKLEDSRYGRLPFSIRVLLEAAIRNCDEFLVKKQDIENILHWNVTQHKNIEVPFKPARVILQDFTGVPAVVDFAAMRDAVKKLGGDPEKINPVCPADLVIDHSIQVDFNRRADSLQKNQDLEFERNRERFEFLKWGSQAFHNMRIIPPGSGIIHQVNLEYLARVVFDQDGYYYPDSLVGTDSHTTMIDGLGILGWGVGGIEAEAVMLGQPISMVLPQVIGYRLMGKPHPLVTSTDIVLTITKHLRQVGVVGKFVEFFGPGVAQLSIADRATIANMCPEYGATAAFFPVDEVSITYLVQTGRDEEKLKYIKKYLQAVGMFRDFNDPSQDPDFTQVVELDLKTVVPCCSGPKRPQDKVAVSDMKKDFESCLGAKQGFKGFQVAPEHHNDHKTFIYDNTEFTLAHGSVVIAAITSCTNTSNPSVMLGAGLLAKKAVDAGLNVMPYIKTSLSPGSGVVTYYLQESGVMPYLSQLGFDVVGYGCMTCIGNSGPLPEPVVEAITQGDLVAVGVLSGNRNFEGRVHPNTRANYLASPPLVIAYAIAGTIRIDFEKEPLGVNAKGQQVFLKDIWPTRDEIQAVERQYVIPGMFKEVYQKIETVNESWNALATPSDKLFFWNSKSTYIKSPPFFENLTLDLQPPKSIVDAYVLLNLGDSVTTDHISPAGNIARNSPAARYLTNRGLTPREFNSYGSRRGNDAVMARGTFANIRLLNRFLNKQAPQTIHLPSGEILDVFDAAERYQQAGLPLIVLAGKEYGAGSSRDWAAKGPFLLGIKAVLAESYERIHRSNLVGMGVIPLEYLPGENADALGLTGQERYTIIIPENLKPQMKVQVKLDTGKTFQAVMRFDTDVELTYFLNGGILNYMIRKMAK
Kd [4]: 0.02 to 0.05 nM

Source: patent US5922545A, “In vitro peptide and antibody display libraries” (Affymax Technologies N.V., priority 1997, dated 1999)
